Drawing on patent publication US5519022A, “α, α dialkylbenzyl derivatives” (Imperial Chemical Industries Plc, priority 1991, dated 1996), this text covers IC50 for four compounds.

The target in the test is T1, 5-LO (Homo sapiens, UniProt P09917).
T1 construct: effects of a test compound against 5-LO and also cyclooxygenase in the presence of blood cells and proteins; endogenous in cells; host or cells: blood cells in heparinised human blood challenged with calcium ionophore A23187
T1 sequence (P09917 1-674): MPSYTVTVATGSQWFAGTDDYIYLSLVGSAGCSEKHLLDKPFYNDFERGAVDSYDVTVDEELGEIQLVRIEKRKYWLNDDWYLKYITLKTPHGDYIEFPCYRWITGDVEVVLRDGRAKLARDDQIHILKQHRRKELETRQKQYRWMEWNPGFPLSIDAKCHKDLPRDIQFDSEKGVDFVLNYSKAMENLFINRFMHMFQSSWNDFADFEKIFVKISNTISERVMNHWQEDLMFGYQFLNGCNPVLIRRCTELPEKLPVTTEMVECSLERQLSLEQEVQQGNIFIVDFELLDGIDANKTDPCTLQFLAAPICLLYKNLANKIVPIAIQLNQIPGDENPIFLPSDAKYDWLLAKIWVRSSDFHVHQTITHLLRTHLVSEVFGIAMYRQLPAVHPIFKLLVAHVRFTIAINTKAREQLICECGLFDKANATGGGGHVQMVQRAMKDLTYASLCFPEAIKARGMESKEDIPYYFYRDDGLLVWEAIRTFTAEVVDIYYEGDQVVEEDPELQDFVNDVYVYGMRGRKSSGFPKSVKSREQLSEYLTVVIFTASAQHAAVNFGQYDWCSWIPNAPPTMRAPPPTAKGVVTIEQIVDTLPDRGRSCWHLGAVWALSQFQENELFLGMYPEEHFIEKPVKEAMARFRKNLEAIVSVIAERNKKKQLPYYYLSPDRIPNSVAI
Description: Test a) in vitro inhibition of LTB4 production in A23187-challenged heparinised human blood (radioimmunoassay). It is filed as cell-based. The following applies: calcium ionophore A23187 challenge. As to the method:
a) An in vitro assay system involving incubating a test compound with heparinised human blood, prior to challenge with the calcium ionophore A23187 and then indirectly measuring the inhibitory effects on 5-LO by assaying the amount of LTB4 using specific radioimmunoassays described by Carey and Forder (F. Carey and R. A. Forder, Prostaglandins, Leukotrienes Med., 1986, 22, 57; Prostaglandins, 198, 28, 666; Brit. J. Pharmacol. 1985, 84, 34P) which involve the use of a protein-LTB4 conjugate produced using the procedure of Young et alia (Prostaglandins, 1983, 26(4), 605-613). The effects of a test compound on the enzyme cyclooxygenase (which is involved in the alternative metabolic pathway for arachidonic acid and gives rise to prostaglandins, thromboxanes and related metabolites) may be measured at the same time using the specific radioimmunoassay for thromboxane B2 (TxB2) described by Carey and Forder (see above). This test provides an indication of the effects of a test compound against 5-LO and also cyclooxygenase in the presence of blood cells and proteins. It permits the selectivity of the inhibitory effect on 5-LO or cyclooxygenase to be assessed.

Take `C=CCC(C#N)(CC=C)c1cccc(OCc2ccc3c(ccc(=O)n3C)c2)c1` [2,2-diallyl-2-[3-(1-methyl-2-oxo-1,2-dihydroquinolin-6-ylmethoxy)phenyl]acetonitrile]: the half-inhibitory concentration (IC50) (commonly the point on the concentration scale where inhibition reaches its midpoint) turned out to be 50 nM.

For `CCC(CC)(C(C)=O)c1cccc(OCc2ccc3c(ccc(=O)n3C)c2)c1` [3-ethyl-3-[3-(1-methyl-2-oxo-1,2-dihydroquinolin-6-ylmethoxy)phenyl]pentan-2-one], the half-maximal inhibitory concentration (IC50) was 150 nM.

As to `CCC(C)(C#N)c1cccc(OCc2ccc3c(ccc(=O)n3C)c2)c1` (stereo not shown) [2-methyl-2-[3-(1-methyl-2-oxo-1,2-dihydroquinolin-6-ylmethoxy)phenyl]butyronitrile], the IC50 came out at 80 nM.

Turning to `CCC(C#N)(CC)c1cccc(OCc2ccc3c(ccc(=O)n3C)c2)c1` [2-ethyl-2-[3-(1-methyl-2-oxo-1,2-dihydroquinolin-6-ylmethoxy)phenyl]butyronitrile], the IC50 came out at 500 nM.
